Data taken from article PMC12575728, “Galactose-modified small molecule modulator targets RORα to enhance circadian rhythm and alleviate periodontitis-associated alveolar bone loss” (Bone Research, 2025).
Converted amounts (≈) assume the structure as drawn. Read-outs that look alike come from different tables or passages of the source.

What was measured:
[1] = system: jet lag mice; assay: Clock gene mRNA in liver of jet lag mice; format: in vivo; conditions: mice with disordered circadian rhythms
Method: (§1) RNA from liver, periodontal tissues and cell samples was prepared as previously described. Total RNA (1 ug) was synthesized into cDNA using […] (Vazyme). mRNA expression levels were normalized to GAPDH. Relative expression levels and enrichment contents were calculated using the comparative Ct Method. Primer information is detailed in Data file S1.
Male C57BL/6 mice,[40] 2 months old, were housed under disrupted conditions for 4 weeks. From the third week, they were intraperitoneally injected with Gala-SR, SR1078, or DMSO for 3 weeks. In the fifth week, general anesthesia was administered via intraperitoneal injection of pentobarbital sodium (40 mg/kg), and a ligature was placed around the cervix of the maxillary second molar to establish the murine periodontitis model. Collect gingival tissue and liver tissue every 6 h continuously for a duration of 48 h.

[2] = system: RORα; assay: G6Pase and Fgf21 mRNA in mouse liver after IP injection; format: in vivo, mice; conditions: 10 mg/kg IP, liver collected 24 h after injection
Method: as §1

[3] = system: C57 mice; assay: Mouse locomotor assay; format: in vivo; conditions: 10 mg/kg IP at ZT11, D:D, compared to DMSO
Method: WT C57BL/6 J mice at the age of 2 months old were entrained under a 12-h /12-h […] at 24 °C for 2 weeks.[36] One week after mouse clock synchronization to the ambient light/dark cycle, SR1078, Gala-SR or dimethyl sulfoxide (DMSO) was dissolved in saline and intraperitoneally injected (10 mg/kg) into mice 1 h before light off (ZT11). […] SR1078, Gala-SR or DMSO was injected again 24 h later. After 2 weeks of continuous recording, locomotor activity was analyzed with ClockLab software (Actimetrics) following the procedures described previously34.

[4] = Kinetic solubility test; format: physicochemical; conditions: water, 25 °C, kinetic from dmso stock
From the text: Solubility(μmol/L)=Areafiltered×DFfiltered/Areastd×DFstd×[std]×DFstd

[5] = target: T1, RORα (Homo sapiens, UniProt P35398); assay: Luciferase reporter assay (G6Pase or FGF21 promoter) in HEK293T cells cotransfected with RORα; format: cell-based; conditions: HEK293T, RORα; for luminescence of G6Pase and FGF21 luciferase reporters: vs DMSO
T1 construct: HEK293T cells co-transfected with a full-length RORα gene and a luciferase reporter gene; expressed in transfected cells; host or cells: HEK293T
T1 sequence (P35398 1-523): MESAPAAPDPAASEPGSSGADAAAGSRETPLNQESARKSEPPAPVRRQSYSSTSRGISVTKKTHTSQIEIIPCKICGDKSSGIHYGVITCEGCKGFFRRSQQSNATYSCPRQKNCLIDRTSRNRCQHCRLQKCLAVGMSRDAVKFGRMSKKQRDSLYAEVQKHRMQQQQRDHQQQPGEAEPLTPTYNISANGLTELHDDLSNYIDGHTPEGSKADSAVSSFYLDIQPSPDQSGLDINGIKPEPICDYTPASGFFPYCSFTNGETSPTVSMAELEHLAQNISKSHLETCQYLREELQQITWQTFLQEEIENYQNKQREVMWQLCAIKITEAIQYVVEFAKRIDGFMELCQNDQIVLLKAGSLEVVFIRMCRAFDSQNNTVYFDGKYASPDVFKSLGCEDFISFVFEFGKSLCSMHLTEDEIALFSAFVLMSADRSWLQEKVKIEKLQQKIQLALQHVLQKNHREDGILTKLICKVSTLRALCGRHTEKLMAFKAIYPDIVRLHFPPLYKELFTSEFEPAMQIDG
Method: HEK293T cells were transfected with Lipofectamine 8000 (ThermoFisher) strictly following the manufacturer’s instructions. Cotransfected HEK293T cells with RORα or RORγ plasmid and a reporter consisting of the G6Pase or FGF21 promoters upstream of a luciferase reporter gene. 500 ng plasmid DNA was transfected into each well of 24 well-plate 24 h after the transfection, DMSO or Gala-SR and SR1078 (5 µmol/L) was added and incubated for 24 h. The Lumicycle instrument detects luminescence and records the numerical value.

[6] = system: PER2::LUC mice; assay: Real-time bioluminescence recording of PER2::LUC mice; format: in vivo; conditions: 10 mg/kg IP at ZT0
Method: PER2::LUC mice at ages of 2–3 months-old were housed in 12:12 light-dark conditions for two weeks before the experiments.[33] Gala-SR and SR1078 (10 mg/kg) were dissolved in DMSO and I.P.injected into mouse at ZT0. After 1 h, D-luciferin was I.P. injected into mouse for another 0.5 h. Mice were then imaged on IVIS 673 Lumina III system and analyzed with live imaging software.

[7] = Pharmacokinetic studies in mice (IP and IV); format: in vivo; conditions: for AUC / Cmax / Tmax / half-life / concentration at 8 h / bioavailability / MRT inf: male, C57BL/6 J, mouse, plasma; for concentration at 8 h: read-out: mean plasma concentration 8 h after injection; for bioavailability: intraperitoneal, IP versus IV
[8] = system: Per2-dLuc and Bmal1-dLuc U2OS cells; assay: Real-time bioluminescence monitoring of Per2-dLuc and Bmal1-dLuc U2OS cells; format: cell-based, human; conditions: for dose dependence of the enhancing effect on the amplitude of BMAL1: Bmal1-dLuc U2OS cells, 1-10 μM; for fluctuation degree (amplitude) of bioluminescence intensity / period or phase of the bioluminescence / overall bioluminescence levels: Bmal1-dLuc and Per2-dLuc U2OS cells, 2 μmol/L; for overall bioluminescence levels: vs DMSO
Method: Two clonal circadian reporter cell lines, Bmal1-dLuc and Per2-dLuc, were established and used in this study.[36] These two cell lines display robust cellular rhythmicity with near anti-phasic oscillation of bioluminescence expression. The lentivirus preparation, transduction of U2OS cells and selection of the knockout candidates with puromycin (at […] concentration) were performed using a previously published protoco.[37] LumiCycle (Actimetrics, Inc., Evanston, IL) detect for U2OS cells stably expressing Bmal1-dLuc and Per2-dLuc cells were seeded on an opaque 24-well plate. When the cells are full, which were treated with dexamethasone (DEX) (100 nmol/L final) for 2 h for resetting, 2 h later, the media of cells were replaced with bioluminescence recording media having DMEM culture medium (Gibco 21063029, 500 mL), 70 mL 12% FBS. Luciferin (0.1 mmol/L final) was added fresh to the bioluminescence media. Molecules at determined concentrations were supplied to the recording media (final DMSO concentration is 0.1%).

[9] = set-up: method as in PMID 20735016; conditions: cited from earlier work
[10] = ip, 10 mg/kg, 10 mg/kg IP, read-out: MRTInf_obs (mean retention time)
[11] = iv, 10 mg/kg, 10 mg/kg IV, read-out: MRTInf_obs

Row | SMILES | activity rhythm (amplitude) and total activity [3] | solubility kinetic at 2 h [4] [µM] | luminescence of G6Pase and FGF21 luciferase reporters ([5]; 5 μmol/L) | liver luciferase signal [6] | AUC/D ([7]; 10 mg/kg IP) [kg·ng·h/mL/mg] | AUC/D ([7]; 10 mg/kg IV) [kg·ng·h/mL/mg] | AUC ([7]; 10 mg/kg IP) [ng·h/mL] | Cmax ([7]; 10 mg/kg IP) [ng/mL] | Tmax ([7]; 10 mg/kg IP) [min] | half-life ([7]; 10 mg/kg IP) [min] | concentration at 8 h ([7]; 10 mg/kg IP) [ng/mL] | AUC ([7]; 10 mg/kg IV) [ng·h/mL] | Cmax ([7]; 10 mg/kg IV) [ng/mL] | Tmax ([7]; 10 mg/kg IV) [min] | half-life ([7]; 10 mg/kg IV) [min] | bioavailability ([7]; 10 mg/kg) [%] | MRT inf [7, 10] [min] | MRT inf [7, 11] [min] | dose dependence of the enhancing effect on the amplitude of BMAL1 [8] | fluctuation degree (amplitude) of bioluminescence intensity [8] | further results
1 | O=C(Nc1ccc(C(OCO[C@@H]2O[C@H](CO)[C@H](O)[C@H](O)[C@H]2O)(C(F)(F)F)C(F)(F)F)cc1)c1ccc(C(F)(F)F)cc1 [Gala-SR] | significantly increased | 282 (≈ 176 µg/mL) | marked augmentation in the luminescence | induced within 0.5 h of treatment | 607.73 | 817.62 | 6080 | 1310 | 30 | 206 | 202 | 8180 | 4990 | 30 | 149 | ~74.3 | 270 | 178 | increases with the dose | further enhanced | circadian rhythm of clock gene expression in liver tissue [1]: effectively restored; G6Pase and FGF21 expression in mice liver compared to SR1078 [2]: significantly upregulated; expression of G6Pase and FGF21 luciferase reporter genes compared to SR1078 ([5]; 5 μmol/L): substantially elevated expression; activation of luciferase reporters, with galactosidase inhibitor ([5]; 5 μmol/L Gala-SR + β-galactosidase inhibitor, vs Gala-SR alone): significantly decreased compared to the original level; expression of G6Pase and FGF21 luciferase reporter genes, combined with galactosidase ([5]; 5 μmol/L Gala-SR + β-galactosidase, vs Gala-SR alone): significantly enhanced expression; period or phase of the bioluminescence [8]: neither SR1078 nor Gala-SR treatment induced any obvious alterations; overall bioluminescence levels [8]: superior efficacy than SR1078; circadian rhythm amplitude, with β-glycosidase ([8]; Gala-SR + β-galactosidase (205 U/mg)): augmentation; circadian rhythm amplitude, with β-glycosidase inhibitor ([8]; Gala-SR + β-galactosidase inhibitor (26 mmol/L)): suppression
2 | O=C(Nc1ccc(C(O)(C(F)(F)F)C(F)(F)F)cc1)c1ccc(C(F)(F)F)cc1 [SR1078, reference compound] | significantly increased | 4.15 (≈ 1.79 µg/mL) | marked augmentation in the luminescence | induced within 0.5 h of treatment | 190.962 | 254.24 | 1910 | 1810 | 30 | 58.2 | 2.96 | 2540 | 7130 | 30 | 58.8 | ~75.1 | 71.4 | 29.2 | difficult to further promote its efficacy | significant augmentation | safe dose for in vitro experiments ([9]; in vitro): 5 µmol/L; safe dose for animal studies ([9]; mice): 10 mg/kg; MRTInf_obs (mean retention time) ([7]; 10 mg/kg IP, 10 mg/kg): 71.64 min; period or phase of the bioluminescence [8]: neither SR1078 nor Gala-SR treatment induced any obvious alterations; overall bioluminescence levels [8]: significantly elevated
